According to ChEMBL document CHEMBL5316339, “Discovery of a Series of Substituted 1H-((1,2,3-Triazol-4-yl)methoxy)pyrimidines as Brain Penetrants and Potent GluN2B-Selective Negative Allosteric Modulators” (J Med Chem, 2023):
≈ marks a conversion by molar mass, not a printed value.

Key:
MDR1 (P-gp) = experiment: Efflux ratio of apparent permeability from basolateral to apical side over apical to basolateral side in MDCK-MDR1 cells at 5 uM incubated for 60 mins by LC-MS/MS analysis; assay type: ADME, cell-based, Canis lupus familiaris; conditions: dog
[1] = target: Glutamate receptor ionotropic, NMDA 2B (Rattus norvegicus, UniProt Q00960); experiment: Displacement of 3-(3H) 1-(azetidin-1-yl)-2-(6- (4-fluoro-3-methyl-phenyl)pyrrolo-[…] pyridin-1yl)ethanone from GluN2B receptor in rat cortical membrane assessed as inhibition constant incubated for 2 hrs under shaking condition by liquid scintillator counter analysis; assay type: cell membranes, Cortex
[2] = target: Voltage-gated inwardly rectifying potassium channel KCNH2 (Homo sapiens, UniProt Q12809); experiment: Displacement of [3H]dofetilide from human ERG expressed in HEK293 cells; assay type: toxicity, cell-based
[3] = target: Glutamate NMDA receptor; GRIN1/GRIN2B (Homo sapiens, UniProt Q05586+Q13224); experiment: Negative allosteric modulation of human GluN1A/GluN2B receptor expressed in T-REX-CHO cells preincubated for 5 mins followed by glutamate and glycine addition and measured after 5 mins by FLIPR assay; assay type: cell-based
Cytochrome P450 1A2 = target: T1, Cytochrome P450 1A2 (Homo sapiens, UniProt P05177); experiment: Inhibition of CYP1A2 in human liver microsomes incubated for 10 mins by LC-MS/MS analysis; assay type: ADME, Microsome
T1 sequence (P05177 whole entry): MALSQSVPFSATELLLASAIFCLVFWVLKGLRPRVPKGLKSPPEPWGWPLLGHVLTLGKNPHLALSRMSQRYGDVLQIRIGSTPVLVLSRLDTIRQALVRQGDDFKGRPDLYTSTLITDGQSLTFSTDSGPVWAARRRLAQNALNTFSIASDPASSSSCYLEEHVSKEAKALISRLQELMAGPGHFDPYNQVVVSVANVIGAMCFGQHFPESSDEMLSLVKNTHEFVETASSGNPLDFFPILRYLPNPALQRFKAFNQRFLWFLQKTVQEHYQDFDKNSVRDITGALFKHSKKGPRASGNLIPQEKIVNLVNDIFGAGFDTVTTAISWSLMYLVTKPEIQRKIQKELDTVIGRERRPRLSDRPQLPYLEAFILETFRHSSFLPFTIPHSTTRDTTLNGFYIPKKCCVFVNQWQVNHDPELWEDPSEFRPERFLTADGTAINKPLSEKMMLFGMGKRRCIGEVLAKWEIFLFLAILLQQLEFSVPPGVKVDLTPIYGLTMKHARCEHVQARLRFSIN

[4] = Thermodynamic solubility in aqueous phosphate buffer at pH 7; assay type: physicochemical; conditions: read-out: Therm_solubility
[5] = Thermodynamic solubility in aqueous phosphate buffer at pH 2; assay type: physicochemical; conditions: read-out: Therm_solubility
[6] = Metabolic stability in rat liver microsomes assessed as extraction ratio; assay type: ADME, Microsome; conditions: read-out: ERH
[7] = Metabolic stability in human liver microsomes assessed as extraction ratio; assay type: ADME, Microsome; conditions: read-out: ERH
Cytochrome P450 2C19 = Cytochrome P450 2C19 (Homo sapiens, UniProt P33261); experiment: Inhibition of CYP2C19 in human liver microsomes incubated for 10 mins by LC-MS/MS analysis; assay type: ADME, Microsome
Cytochrome P450 2D6 = Cytochrome P450 2D6 (Homo sapiens, UniProt P10635); experiment: Inhibition of CYP2D6 in human liver microsomes incubated for 10 mins by LC-MS/MS analysis; assay type: ADME, Microsome
Chain of Cytochrome P450 2D6 (P10635 whole entry): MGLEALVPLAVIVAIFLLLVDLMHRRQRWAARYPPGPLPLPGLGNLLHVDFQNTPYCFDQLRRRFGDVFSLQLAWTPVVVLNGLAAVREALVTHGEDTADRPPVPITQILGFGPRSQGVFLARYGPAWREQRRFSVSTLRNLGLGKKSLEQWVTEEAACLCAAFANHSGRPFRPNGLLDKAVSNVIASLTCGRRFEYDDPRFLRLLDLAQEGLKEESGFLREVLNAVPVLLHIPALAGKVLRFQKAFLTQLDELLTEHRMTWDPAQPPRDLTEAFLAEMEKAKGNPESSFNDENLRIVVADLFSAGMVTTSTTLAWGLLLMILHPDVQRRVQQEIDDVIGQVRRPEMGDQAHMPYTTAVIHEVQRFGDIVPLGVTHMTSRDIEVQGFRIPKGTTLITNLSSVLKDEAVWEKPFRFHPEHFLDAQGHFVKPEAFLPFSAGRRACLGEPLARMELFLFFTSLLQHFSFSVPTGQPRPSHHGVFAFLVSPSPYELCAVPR

Chain of Glutamate NMDA receptor; GRIN1/GRIN2B (Q13224 whole entry, other chains not shown): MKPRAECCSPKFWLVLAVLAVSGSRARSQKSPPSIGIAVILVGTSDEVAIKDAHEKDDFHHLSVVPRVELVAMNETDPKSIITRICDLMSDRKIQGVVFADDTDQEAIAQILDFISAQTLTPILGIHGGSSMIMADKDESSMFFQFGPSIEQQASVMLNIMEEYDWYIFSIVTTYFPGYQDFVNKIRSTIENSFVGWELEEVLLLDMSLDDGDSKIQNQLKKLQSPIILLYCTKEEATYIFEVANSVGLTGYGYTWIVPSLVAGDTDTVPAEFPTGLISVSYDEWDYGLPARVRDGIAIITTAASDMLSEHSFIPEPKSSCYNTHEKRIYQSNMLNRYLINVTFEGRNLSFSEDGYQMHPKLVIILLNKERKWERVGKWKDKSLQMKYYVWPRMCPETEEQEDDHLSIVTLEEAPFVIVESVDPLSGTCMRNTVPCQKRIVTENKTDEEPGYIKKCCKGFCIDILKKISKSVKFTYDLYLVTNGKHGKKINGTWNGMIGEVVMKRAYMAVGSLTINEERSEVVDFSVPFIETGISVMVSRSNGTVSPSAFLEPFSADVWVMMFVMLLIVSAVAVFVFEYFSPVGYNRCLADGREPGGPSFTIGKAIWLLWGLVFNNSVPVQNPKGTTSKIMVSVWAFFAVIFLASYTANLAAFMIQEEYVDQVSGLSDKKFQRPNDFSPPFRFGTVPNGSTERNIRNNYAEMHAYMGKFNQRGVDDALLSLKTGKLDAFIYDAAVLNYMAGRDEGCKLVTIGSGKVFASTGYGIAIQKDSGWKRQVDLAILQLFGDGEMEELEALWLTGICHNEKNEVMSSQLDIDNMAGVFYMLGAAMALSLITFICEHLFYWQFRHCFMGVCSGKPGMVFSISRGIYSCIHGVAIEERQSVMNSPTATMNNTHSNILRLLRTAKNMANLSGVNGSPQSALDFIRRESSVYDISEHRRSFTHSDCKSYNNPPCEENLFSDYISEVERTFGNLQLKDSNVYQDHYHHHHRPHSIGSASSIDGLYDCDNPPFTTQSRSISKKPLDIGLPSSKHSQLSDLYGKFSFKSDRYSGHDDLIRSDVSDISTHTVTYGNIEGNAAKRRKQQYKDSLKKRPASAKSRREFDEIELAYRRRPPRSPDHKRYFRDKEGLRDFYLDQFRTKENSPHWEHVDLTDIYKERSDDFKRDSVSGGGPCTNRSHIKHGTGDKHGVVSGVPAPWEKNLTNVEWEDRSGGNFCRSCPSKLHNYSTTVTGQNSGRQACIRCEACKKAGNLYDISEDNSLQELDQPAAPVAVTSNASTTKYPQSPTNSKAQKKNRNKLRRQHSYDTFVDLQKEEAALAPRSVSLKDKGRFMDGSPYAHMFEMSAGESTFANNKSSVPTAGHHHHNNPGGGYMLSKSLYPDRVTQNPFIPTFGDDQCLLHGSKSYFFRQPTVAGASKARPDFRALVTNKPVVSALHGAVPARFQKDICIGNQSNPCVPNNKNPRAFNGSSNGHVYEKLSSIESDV
Chain of Glutamate receptor ionotropic, NMDA 2B (Q00960 whole entry): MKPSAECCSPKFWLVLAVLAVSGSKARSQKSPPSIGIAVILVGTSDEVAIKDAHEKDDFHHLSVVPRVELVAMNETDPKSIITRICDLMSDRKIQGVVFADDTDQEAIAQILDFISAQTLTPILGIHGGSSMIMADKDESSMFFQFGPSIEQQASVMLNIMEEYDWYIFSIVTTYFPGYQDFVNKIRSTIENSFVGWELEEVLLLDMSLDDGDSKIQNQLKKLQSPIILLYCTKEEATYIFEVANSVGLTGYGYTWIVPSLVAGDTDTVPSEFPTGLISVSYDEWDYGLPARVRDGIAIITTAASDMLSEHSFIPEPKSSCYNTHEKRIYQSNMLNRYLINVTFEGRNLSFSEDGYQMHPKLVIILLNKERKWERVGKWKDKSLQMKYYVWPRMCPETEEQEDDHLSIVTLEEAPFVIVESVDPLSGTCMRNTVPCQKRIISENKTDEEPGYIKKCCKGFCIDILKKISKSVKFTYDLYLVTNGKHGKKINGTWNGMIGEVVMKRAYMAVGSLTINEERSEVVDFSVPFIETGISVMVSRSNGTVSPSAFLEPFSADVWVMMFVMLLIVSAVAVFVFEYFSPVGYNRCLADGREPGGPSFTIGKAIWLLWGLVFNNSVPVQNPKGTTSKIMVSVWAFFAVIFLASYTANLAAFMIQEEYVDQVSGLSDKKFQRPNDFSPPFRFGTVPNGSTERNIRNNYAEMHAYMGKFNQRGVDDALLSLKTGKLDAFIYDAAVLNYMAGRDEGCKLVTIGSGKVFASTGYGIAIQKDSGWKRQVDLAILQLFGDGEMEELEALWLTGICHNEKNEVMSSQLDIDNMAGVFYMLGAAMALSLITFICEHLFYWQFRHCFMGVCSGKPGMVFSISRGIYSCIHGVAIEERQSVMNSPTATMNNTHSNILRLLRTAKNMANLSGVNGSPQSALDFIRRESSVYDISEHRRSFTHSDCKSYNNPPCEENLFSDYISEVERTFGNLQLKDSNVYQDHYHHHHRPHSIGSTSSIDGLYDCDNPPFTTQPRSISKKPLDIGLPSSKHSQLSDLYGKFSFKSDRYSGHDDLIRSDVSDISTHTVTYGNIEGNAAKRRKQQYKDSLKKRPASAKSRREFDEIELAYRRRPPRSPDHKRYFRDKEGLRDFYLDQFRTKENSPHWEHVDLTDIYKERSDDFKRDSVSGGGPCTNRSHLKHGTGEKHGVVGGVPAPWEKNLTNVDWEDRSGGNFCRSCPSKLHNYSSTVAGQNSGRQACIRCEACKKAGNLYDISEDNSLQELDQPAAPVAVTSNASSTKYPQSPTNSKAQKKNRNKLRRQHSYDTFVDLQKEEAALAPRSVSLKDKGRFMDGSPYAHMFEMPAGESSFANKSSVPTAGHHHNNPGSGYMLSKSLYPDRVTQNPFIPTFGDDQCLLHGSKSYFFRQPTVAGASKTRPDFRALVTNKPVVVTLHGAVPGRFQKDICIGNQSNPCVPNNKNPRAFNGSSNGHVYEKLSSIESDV
Chain of Voltage-gated inwardly rectifying potassium channel KCNH2 (Q12809 whole entry): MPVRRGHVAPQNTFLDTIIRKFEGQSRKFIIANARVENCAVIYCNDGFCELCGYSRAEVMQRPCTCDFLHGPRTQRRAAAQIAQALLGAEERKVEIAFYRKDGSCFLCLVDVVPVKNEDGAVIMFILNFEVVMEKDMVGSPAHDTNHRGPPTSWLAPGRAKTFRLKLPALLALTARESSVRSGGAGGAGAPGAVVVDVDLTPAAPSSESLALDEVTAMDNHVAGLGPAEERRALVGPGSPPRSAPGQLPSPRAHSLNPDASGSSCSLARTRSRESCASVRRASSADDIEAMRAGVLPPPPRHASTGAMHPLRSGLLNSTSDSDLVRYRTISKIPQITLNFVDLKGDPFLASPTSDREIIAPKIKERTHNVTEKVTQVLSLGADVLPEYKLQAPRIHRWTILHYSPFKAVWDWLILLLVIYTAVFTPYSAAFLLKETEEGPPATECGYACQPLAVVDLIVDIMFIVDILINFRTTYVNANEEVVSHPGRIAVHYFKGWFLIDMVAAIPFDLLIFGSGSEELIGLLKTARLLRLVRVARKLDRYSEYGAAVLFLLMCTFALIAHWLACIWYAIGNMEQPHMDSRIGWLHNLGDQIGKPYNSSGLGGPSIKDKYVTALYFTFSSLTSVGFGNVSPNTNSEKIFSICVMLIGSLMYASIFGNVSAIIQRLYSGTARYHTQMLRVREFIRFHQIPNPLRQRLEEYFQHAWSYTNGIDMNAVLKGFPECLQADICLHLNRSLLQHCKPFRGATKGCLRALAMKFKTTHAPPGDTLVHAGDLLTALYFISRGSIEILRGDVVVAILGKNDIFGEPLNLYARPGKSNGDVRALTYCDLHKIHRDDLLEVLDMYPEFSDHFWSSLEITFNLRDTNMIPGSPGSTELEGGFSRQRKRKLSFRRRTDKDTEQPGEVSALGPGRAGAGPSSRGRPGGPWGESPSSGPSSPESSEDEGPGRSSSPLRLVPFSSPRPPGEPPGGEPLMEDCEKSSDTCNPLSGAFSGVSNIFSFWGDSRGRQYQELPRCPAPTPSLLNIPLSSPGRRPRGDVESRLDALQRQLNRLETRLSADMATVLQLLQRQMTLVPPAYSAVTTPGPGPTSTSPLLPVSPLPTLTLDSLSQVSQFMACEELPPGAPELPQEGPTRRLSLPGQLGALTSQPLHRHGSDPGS
Chain of Cytochrome P450 2C19 (P33261 whole entry): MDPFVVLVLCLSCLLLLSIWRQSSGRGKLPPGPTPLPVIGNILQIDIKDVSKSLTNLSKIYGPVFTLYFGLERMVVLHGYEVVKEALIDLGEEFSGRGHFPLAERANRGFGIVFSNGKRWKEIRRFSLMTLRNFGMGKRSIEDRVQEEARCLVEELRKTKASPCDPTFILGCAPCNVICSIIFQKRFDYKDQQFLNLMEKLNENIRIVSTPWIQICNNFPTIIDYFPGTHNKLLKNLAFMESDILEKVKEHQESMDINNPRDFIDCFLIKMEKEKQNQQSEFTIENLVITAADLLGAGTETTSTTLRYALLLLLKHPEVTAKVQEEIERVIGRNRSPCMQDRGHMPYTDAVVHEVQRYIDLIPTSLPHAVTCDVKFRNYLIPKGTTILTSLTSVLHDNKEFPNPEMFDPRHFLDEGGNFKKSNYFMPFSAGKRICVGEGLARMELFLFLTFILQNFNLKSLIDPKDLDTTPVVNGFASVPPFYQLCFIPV

SMILES | efflux ratio at 1 h, 5 µM (MDR1 (P-gp)) | Ki [1] [nM] | IC50 [3] [nM] | IC50 (Cytochrome P450 1A2) [nM] | solubility thermodynamic [4] [µM] | solubility thermodynamic [5] [µM] | hepatic extraction ratio [6] | hepatic extraction ratio [7] | IC50 (Cytochrome P450 2C19) [nM] | IC50 (Cytochrome P450 2D6) [nM] | IC50 [2] [nM]
FC(F)Oc1cc(-n2cc(CNc3ncco3)nn2)ccc1Cl | 1.5 | 810 | 390 | 3400 |  |  |  |  |  |  | > 10000
C[C@@H](Oc1ncccn1)c1cn(-c2ccc(Cl)c(OC(F)F)c2)nn1 |  | 67 |  |  |  |  | < 0.17 | 0.59 |  |  | 
CC(C)(O)c1cnc(OCc2cn(-c3ccc(F)c(OC(F)F)c3)nn2)nc1 | 11.8 | 57 | 49 |  | 510 (≈ 202 µg/mL) | 560 (≈ 221 µg/mL) |  |  |  |  | > 10000
Fc1cccnc1OCc1cn(C2CCC(Cl)C(OC(F)F)C2)nn1 (stereo not drawn) |  | 889 | 130 | 5200 |  |  |  |  | 5300 | 2200 | 
Fc1ccc(-n2cc(COc3nccc(N4CC(F)C4)n3)nn2)cc1OC(F)F | 2.6 | 14 | 16 |  | < 4 | > 400 |  |  |  |  | > 10000
FC(F)Oc1cc(-n2cc(COc3cccnn3)nn2)ccc1Cl |  | 1870 | 580 |  |  |  |  |  |  |  | 
Cc1cnc(OCc2cn(-c3cccc(C(F)F)c3)nn2)nc1 |  | 65 | 25 |  | 22 (≈ 6.98 µg/mL) | 17 (≈ 5.39 µg/mL) |  |  |  |  | > 10000
Cc1cnc(OCc2nnn(-c3cccc(C(F)F)c3)c2C)nc1 |  | 3500 | 1200 |  | 320 (≈ 106 µg/mL) | 210 (≈ 69.6 µg/mL) |  |  |  |  | 

Second part, led by results:

efflux ratio at 1 h, 5 µM (MDR1 (P-gp)) | Ki [1] [nM] | IC50 [3] [nM] | IC50 (Cytochrome P450 1A2) [nM] | solubility thermodynamic [4] [µM] | solubility thermodynamic [5] [µM] | hepatic extraction ratio [6] | hepatic extraction ratio [7] | IC50 (Cytochrome P450 2C19) [nM] | IC50 (Cytochrome P450 2D6) [nM] | SMILES | IC50 [2] [nM]
1 | 6.8 | 11 |  | < 4 | 11 (≈ 4.32 µg/mL) |  |  |  |  | Fc1ccc(-n2cc(COc3ncc(N4CCC4)cn3)nn2)cc1OC(F)F | > 10000
3 | 44 | 16 |  | 28 (≈ 10.4 µg/mL) | 560 (≈ 207 µg/mL) |  |  |  |  | Nc1nc(OCc2cn(-c3ccc(F)c(OC(F)F)c3)nn2)ncc1F | > 10000
1.1 | 900 | 840 |  |  |  |  |  |  |  | FC(F)Oc1cc(-n2cc(COc3ccncn3)nn2)ccc1Cl | 
7.7 | 10 | 7.8 |  | 24 (≈ 8.79 µg/mL) | > 400 |  |  |  |  | CNc1ccnc(OCc2cn(-c3ccc(F)c(OC(F)F)c3)nn2)n1 | > 10000
0.91 | 680 | 600 |  |  |  |  |  |  |  | FC(F)Oc1cc(-n2cc(COc3cnccn3)nn2)ccc1Cl | 
0.9 | 13 | 8.3 |  | 70 (≈ 24.6 µg/mL) | 92 (≈ 32.3 µg/mL) |  |  |  |  | Cc1ccnc(OCc2cn(-c3ccc(F)c(OC(F)F)c3)nn2)n1 | > 10000
1 | 630 | 500 |  |  |  |  |  | 7900 |  | FC(F)Oc1cc(-n2cc(CNc3ccccn3)nn2)ccc1Cl | 8000
 | 1.3 | 1.9 |  |  |  | 0.51 | 0.83 |  |  | Cc1cnc(OCc2cn(-c3ccc(Cl)c(OC(F)F)c3)nn2)nc1 | 5600
1.2 | 1900 | 770 |  | 530 (≈ 150 µg/mL) | 560 (≈ 158 µg/mL) |  |  |  |  | Cc1cnc(OCc2cn(-c3ccnc(C)c3)nn2)nc1 | 
 | 1800 | 2500 |  |  |  |  |  |  |  | FC(F)Oc1cc(-n2cc(COc3cncnc3)nn2)ccc1Cl | 
